# Source: patent publication US20240390340A1 (INCYTE CORPORATION, priority 2023, published 2024)
# What was measured:
# [1] = biological target: KRAS G12V (Homo sapiens, UniProt P01116, G12V); assay: GDP-GTP exchange assay (bodipy-GDP/GppNHp, SOS1), KRAS G12V; format: biochemical; conditions: KRAS G12V mutant; value for the most potent isomer quoted for certain compounds; read-out: G12V (KRAS G12V exchange assay IC50)
# [2] = biological target: KRAS G12D (Homo sapiens, UniProt P01116, G12D); assay: GDP-GTP exchange assay (bodipy-GDP/GppNHp, SOS1), KRAS G12D; format: biochemical; conditions: bodipy-loaded KRAS G12D 2.5 nM, 4 h pre-incubation; value for the most potent isomer quoted for certain compounds; read-out: G12D (KRAS G12D exchange assay IC50)
# Sequence of KRAS G12D (P01116 1-188 isoform P01116-2 G12D): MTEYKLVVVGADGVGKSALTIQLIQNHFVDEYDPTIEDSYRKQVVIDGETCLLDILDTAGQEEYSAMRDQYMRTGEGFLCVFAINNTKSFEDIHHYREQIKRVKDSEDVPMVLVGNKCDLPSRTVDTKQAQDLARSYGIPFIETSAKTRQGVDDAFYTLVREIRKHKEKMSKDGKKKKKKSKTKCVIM
# Sequence of KRAS G12V (P01116 1-188 isoform P01116-2 G12V): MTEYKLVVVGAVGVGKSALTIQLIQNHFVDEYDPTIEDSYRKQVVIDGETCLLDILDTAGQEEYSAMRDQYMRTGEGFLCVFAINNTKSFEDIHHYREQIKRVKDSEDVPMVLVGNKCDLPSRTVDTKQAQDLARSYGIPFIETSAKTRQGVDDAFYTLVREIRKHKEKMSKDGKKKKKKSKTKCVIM
Compound,IC50 [1] [nM],IC50 [2] [nM]
Cc1nc2c(F)c(-c3cccc(Cl)c3Cl)c(CCC#N)cc2c2c1cc([C@H]1C[C@H](Oc3ccc(C(F)(F)F)nc3)CN1C(=O)C1CC1)n2[C@H]1[C@H]2CN[C@@H]1C2 [Example 308],≤ 100,≤ 100
Cc1ccccc1C(=O)N1C[C@@H](OCc2c(F)cccc2F)C[C@@H]1c1cc2c(C)nc3c(F)c(-c4cccc(Cl)c4Cl)c(CCC#N)cc3c2n1[C@H]1[C@H]2CN[C@@H]1C2 [Example 196],≤ 100,100 to 1000
CC(O)c1nc2c(F)c(-c3cccc(Cl)c3Cl)c(CCC#N)cc2c2c1cc([C@H]1C[C@H](OCC3(C#N)CC3)CN1C(=O)C1CC1)n2[C@H]1[C@H]2CN[C@@H]1C2 (stereo partly drawn) [Example 404],≤ 100,≤ 100
Cc1nc2c(F)c(-c3cccc(Cl)c3Cl)c(CCC#N)cc2c2c1cc([C@H]1C[C@H](n3cc(N4CCOCC4)cn3)CN1C(=O)C1CC1)n2[C@H]1[C@H]2CN[C@@H]1C2 [Example 428],≤ 100,≤ 100
Cc1nc2c(F)c(-c3cccc(Cl)c3Cl)c(CCC#N)cc2c2c1cc([C@H]1C[C@H](Oc3cccc(C(=O)N4CCOCC4)c3)CN1C(=O)C1CC1)n2[C@H]1[C@H]2CN[C@@H]1C2 [Example 222],≤ 100,≤ 100
Cc1nc2c(F)c(-c3cccc(Cl)c3Cl)c(CCC#N)cc2c2c1cc([C@H]1C[C@H](Oc3cccnc3C#N)CN1C(=O)C1CC1)n2[C@H]1[C@H]2CN[C@@H]1C2 [Example 294],≤ 100,≤ 100
Cc1nc2c(F)c(-c3cccc(Cl)c3Cl)c(CCC#N)cc2c2c1cc([C@H]1C[C@H](OC(C)c3ccccn3)CN1C(=O)C1CC1)n2[C@H]1[C@H]2CN[C@@H]1C2 (stereo partly drawn) [Example 226],≤ 100,≤ 100
C#Cc1ccc(O[C@H]2C[C@H](c3cc4c(C)nc5c(F)c(-c6cccc(Cl)c6Cl)c(CCC#N)cc5c4n3[C@H]3[C@H]4CN[C@@H]3C4)N(C(=O)C3CC3)C2)nc1 [Example 305],≤ 100,≤ 100
Cc1nc2c(F)c(-c3cccc(Cl)c3Cl)c(CCC#N)cc2c2c1cc([C@H]1C[C@H](OCc3cccc(S(C)(=O)=O)c3)CN1C(=O)C1CC1)n2[C@H]1[C@H]2CN[C@@H]1C2 [Example 164],≤ 100,≤ 100
CNC(=O)c1cccc(O[C@H]2C[C@H](c3cc4c(C)nc5c(F)c(-c6cccc(Cl)c6Cl)c(CCC#N)cc5c4n3[C@H]3[C@H]4CN[C@@H]3C4)N(C(=O)C3CC3)C2)c1 [Example 173],≤ 100,≤ 100
Cc1nc2c(F)c(-c3cccc(Cl)c3Cl)c(CCC#N)cc2c2c1cc([C@H]1C[C@H](OC(C)c3c(F)cccc3F)CN1C(=O)C1CC1)n2[C@H]1[C@H]2CN[C@@H]1C2 (stereo partly drawn) [Example 227],≤ 100,≤ 100
Cc1nc2c(F)c(-c3cccc(Cl)c3Cl)c(CCC#N)cc2c2c1cc([C@H]1C[C@H](Oc3cnn(CC(F)F)c3)CN1C(=O)C1CC1)n2[C@H]1[C@H]2CN[C@@H]1C2 [Example 377],≤ 100,≤ 100
Cc1nc2c(F)c(-c3cccc(Cl)c3Cl)c(CCC#N)cc2c2c1cc([C@H]1C[C@H](OCc3ccc(F)cc3)CN1C(=O)C1CC1)n2[C@H]1[C@H]2CN[C@@H]1C2 [Example 251],≤ 100,≤ 100
Cc1cc(C(C)O[C@H]2C[C@H](c3cc4c(C(C)O)nc5c(F)c(-c6cccc(Cl)c6Cl)c(CCC#N)cc5c4n3[C@H]3[C@H]4CN[C@@H]3C4)N(C(=O)C3CC3)C2)ns1 (stereo partly drawn) [Example 335],≤ 100,≤ 100
Cc1nc2c(F)c(-c3cccc(Cl)c3Cl)c(CCC#N)cc2c2c1cc([C@H]1C[C@H](OCc3cccc(F)c3C#N)CN1C(=O)C1CC1)n2[C@H]1[C@H]2CN[C@@H]1C2 [Example 156],≤ 100,≤ 100
COc1nccc(C#N)c1O[C@H]1C[C@H](c2cc3c(C)nc4c(F)c(-c5cccc(Cl)c5Cl)c(CCC#N)cc4c3n2[C@H]2[C@H]3CN[C@@H]2C3)N(C(=O)C2CC2)C1 [Example 298],≤ 100,≤ 100

# The next lines start with the values.
IC50 [1] [nM],IC50 [2] [nM],Compound
≤ 100,≤ 100,Cc1cccc(O[C@H]2C[C@H](c3cc4c(C)nc5c(F)c(-c6cccc(Cl)c6Cl)c(CCC#N)cc5c4n3[C@H]3C4CNC3C4)N(C(=O)C3CC3)C2)c1 (stereo partly drawn) [Example 134]
≤ 100,≤ 100,Cc1cn([C@H]2C[C@H](c3cc4c(C)nc5c(F)c(-c6cccc(Cl)c6Cl)c(CCC#N)cc5c4n3[C@H]3[C@H]4CN[C@@H]3C4)N(C(=O)C3CC3)C2)nn1 [Example 343]
≤ 100,≤ 100,Cc1nc2c(F)c(-c3cccc(Cl)c3Cl)c(CCC#N)cc2c2c1cc([C@H]1C[C@H](OCc3cocn3)CN1C(=O)C1CC1)n2[C@H]1[C@H]2CN[C@@H]1C2 [Example 112]
≤ 100,≤ 100,Cc1nnn([C@H]2C[C@H](c3cc4c(C)nc5c(F)c(-c6cccc(Cl)c6Cl)c(CCC#N)cc5c4n3[C@H]3[C@H]4CN[C@@H]3C4)N(C(=O)C3CC3)C2)c1CO [Example 327]
≤ 100,≤ 100,Cc1nc2c(F)c(-c3cccc(Cl)c3Cl)c(CCC#N)cc2c2c1cc([C@H]1C[C@H](Oc3ccc(N)nc3)CN1C(=O)C1CC1)n2[C@H]1[C@H]2CN[C@@H]1C2 [Example 296]
≤ 100,≤ 100,[2H]C([2H])(O[C@H]1C[C@H](c2cc3c(C)nc4c(F)c(-c5cccc(Cl)c5Cl)c(CCC#N)cc4c3n2[C@H]2[C@H]3CN[C@@H]2C3)N(C(=O)C2CC2)C1)c1cc(C)sn1 [Example 229]
≤ 100,≤ 100,Cc1nc2c(F)c(-c3cccc(Cl)c3Cl)c(CCC#N)cc2c2c1cc([C@H]1C[C@H](OC[C@@H]3CCCO3)CN1C(=O)C1CC1)n2[C@H]1[C@H]2CN[C@@H]1C2 [Example 400]
≤ 100,≤ 100,Cc1nc2c(F)c(-c3cccc(Cl)c3Cl)c(CCC#N)cc2c2c1cc([C@H]1C[C@H](n3cnc(C4CCC4)n3)CN1C(=O)C1CC1)n2[C@H]1[C@H]2CN[C@@H]1C2 [Example 347]
≤ 100,≤ 100,COCC1(c2cn([C@H]3C[C@H](c4cc5c(C)nc6c(F)c(-c7cccc(Cl)c7Cl)c(CCC#N)cc6c5n4[C@H]4[C@H]5CN[C@@H]4C5)N(C(=O)C4CC4)C3)nn2)CC1 [Example 383]
≤ 100,≤ 100,Cc1ccncc1O[C@H]1C[C@H](c2cc3c(C)nc4c(F)c(-c5cccc(Cl)c5Cl)c(CCC#N)cc4c3n2[C@H]2[C@H]3CN[C@@H]2C3)N(C(=O)C2CC2)C1 [Example 130]
≤ 100,≤ 100,Cc1nc2c(F)c(-c3cccc(Cl)c3Cl)c(CCC#N)cc2c2c1cc([C@H]1C[C@H](N3C(=O)COC3=O)CN1C(=O)C1CC1)n2[C@H]1[C@H]2CN[C@@H]1C2 [Example 320]
≤ 100,≤ 100,Cc1ccc(O[C@H]2C[C@H](c3cc4c(C)nc5c(F)c(-c6cccc(Cl)c6Cl)c(CCC#N)cc5c4n3[C@H]3[C@H]4CN[C@@H]3C4)N(C(=O)C3CC3)C2)cc1 [Example 118]
≤ 100,≤ 100,Cc1cnn([C@H]2C[C@H](c3cc4c(C)nc5c(F)c(-c6cccc(Cl)c6Cl)c(CCC#N)cc5c4n3[C@H]3[C@H]4CN[C@@H]3C4)N(C(=O)C3CC3)C2)c1 [Example 279]
100 to 1000,≤ 100,Cc1nc2c(F)c(-c3cccc(Cl)c3Cl)c(CCC#N)cc2c2c1cc([C@H]1C[C@H](OCc3ncco3)CN1C(=O)C1CC1)n2[C@H]1[C@H]2CN[C@@H]1C2 [Example 104]
